In US7498341B2, “Heterocyclically substituted 7-amino-4-quinolone-3-carboxylic acid derivatives, process for their preparation and their use as medicaments” (Sanofi Aventis Deutschland GmbH, priority 2004, dated 2009):

Molecular target: T1, human glycogen phosphorylase a (Homo sapiens, UniProt P06737)
T1 sequence (P06737 2-847 limits assumed): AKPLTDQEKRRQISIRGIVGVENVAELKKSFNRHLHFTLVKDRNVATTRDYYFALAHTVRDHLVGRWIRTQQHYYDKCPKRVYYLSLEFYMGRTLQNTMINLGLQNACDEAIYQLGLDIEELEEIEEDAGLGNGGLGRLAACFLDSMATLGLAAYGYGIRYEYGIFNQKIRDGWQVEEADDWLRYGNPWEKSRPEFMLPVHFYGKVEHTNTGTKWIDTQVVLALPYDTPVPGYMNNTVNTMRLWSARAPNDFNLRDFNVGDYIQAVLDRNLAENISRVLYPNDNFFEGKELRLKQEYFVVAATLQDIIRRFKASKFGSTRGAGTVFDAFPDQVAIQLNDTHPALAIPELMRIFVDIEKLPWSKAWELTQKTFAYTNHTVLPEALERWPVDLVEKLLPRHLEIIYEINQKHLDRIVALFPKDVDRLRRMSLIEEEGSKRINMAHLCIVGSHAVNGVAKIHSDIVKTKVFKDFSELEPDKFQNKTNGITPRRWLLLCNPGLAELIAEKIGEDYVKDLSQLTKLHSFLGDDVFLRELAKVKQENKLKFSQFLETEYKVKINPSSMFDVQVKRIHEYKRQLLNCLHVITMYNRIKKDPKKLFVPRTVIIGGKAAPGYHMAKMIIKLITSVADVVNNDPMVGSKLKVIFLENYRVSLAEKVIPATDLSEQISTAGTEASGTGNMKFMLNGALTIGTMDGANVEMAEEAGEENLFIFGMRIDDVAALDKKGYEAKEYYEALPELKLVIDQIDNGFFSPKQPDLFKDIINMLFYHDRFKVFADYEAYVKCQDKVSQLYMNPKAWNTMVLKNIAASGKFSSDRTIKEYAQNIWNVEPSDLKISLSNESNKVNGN
Experiment: Glycogen phosphorylase a activity assay (reverse direction, liberation of inorganic phosphate)
Format: biochemical
Conditions: 10 μM test substance; in vitro inhibition of glycogen phosphorylase a
Protocol: Glycogen phosphorylase a Activity Assay
All the reactions were carried out as duplicate determinations in microtiter plates with 96 wells (Half Area Plates, Costar No 3696), measuring the change in absorption owing to the formation of the reaction product at the wavelength specified hereinafter in a Multiskan Ascent Elisa Reader (Lab Systems, Finland).
In order to measure the GPa enzymic activity in the reverse direction, the general method of Engers et al. (Engers H D, Shechosky S, Madsen N B, Can J Biochem 1970 July; 48(7):746-754) was used to measure the conversion of glucose 1-phosphate into glycogen and inorganic phosphate, with the following modifications: human glycogen phosphorylase a (for example with 0.76 mg of protein/ml (Aventis Pharma Deutschland GmbH), dissolved in buffer solution E (25 mM β-glycerophosphate, pH 7.0, 1 mM EDTA and 1 mM dithiothreitol) was diluted with buffer T (50 mM Hepes, pH 7.0, 100 mM KCl, 2.5 mM EDTA, 2.5 mM MgCl2.6H2O) and addition of 5 mg/ml glycogen to a concentration of 10 μg of protein/ml. […] The baseline glycogen phosphorylase a activity in the absence of test substance was determined by adding 10 μl of buffer solution T (0.1% DMSO). […] After incubation at 45° C. for 60 minutes, the absorption at 820 nm was measured. […]

Cc1ccc(C)n1Nc1cc2c(=O)c(C(=O)O)cn(Cc3ccccc3)c2cc1Cl [Example 42, 1-Benzyl-7-chloro-6-(2,5-dimethylpyrrol-1-ylamino)-4-oxo-1,4-dihydroquinolone-3-carboxylic acid]
% inhibition at 10 μM: 101%

CCn1cc(C(=O)OCOC(=O)C(C)(C)C)c(=O)c2cc(Nn3c(C)ccc3C)c(Cl)cc21 [Example 53, 2,2-Dimethylpropionyloxymethyl 7-chloro-6-(2,5-dimethylpyrrol-1-ylamino)-1-ethyl-4-oxo-1,4-dihydroquinolone-3-carboxylate]
% inhibition at 10 μM: 93%
